A word on the IC50: it is the concentration at which inhibition is half-maximal. Read a low IC50 as higher potency.

These results are taken from patent US11208400B2, “Substituted 6-(1H-pyrazol-1-yl)pyrimidin-4-amine derivatives and uses thereof” (Bayer Aktiengesellschaft, priority 2016, dated 2021).

The target in the test is T1, human Npt2a (Homo sapiens, UniProt Q06495).
T1 construct: expressed in transfected cells
T1 sequence (Q06495 1-639): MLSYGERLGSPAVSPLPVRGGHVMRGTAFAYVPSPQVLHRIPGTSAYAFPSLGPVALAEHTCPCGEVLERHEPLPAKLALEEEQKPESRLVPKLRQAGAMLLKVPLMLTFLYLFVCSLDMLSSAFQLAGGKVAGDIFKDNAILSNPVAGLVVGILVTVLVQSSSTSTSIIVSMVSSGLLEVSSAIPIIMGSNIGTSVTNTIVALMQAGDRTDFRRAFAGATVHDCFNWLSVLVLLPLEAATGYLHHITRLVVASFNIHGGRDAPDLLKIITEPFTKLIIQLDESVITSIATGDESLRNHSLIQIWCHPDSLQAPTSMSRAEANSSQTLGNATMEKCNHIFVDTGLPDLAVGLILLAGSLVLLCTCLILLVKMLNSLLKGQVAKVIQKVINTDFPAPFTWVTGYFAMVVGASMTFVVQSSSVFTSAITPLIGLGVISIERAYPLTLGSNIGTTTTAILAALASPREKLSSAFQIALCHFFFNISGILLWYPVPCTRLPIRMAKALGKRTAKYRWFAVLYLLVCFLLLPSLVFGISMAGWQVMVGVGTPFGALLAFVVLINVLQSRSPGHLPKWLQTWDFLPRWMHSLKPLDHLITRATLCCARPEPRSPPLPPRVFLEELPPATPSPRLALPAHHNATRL
The test can be described thus: Npt2a activity cell based assay, membrane potential dye, CHO T-REx hNpt2a cells. The note with it: doxycycline-induced, depolarization by sodium phosphate influx, average or median values if tested more than once. The gist of the method:
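Cells were doxycycline-induced CHO T-REx hNpt2a, dye-loaded and pretreated 5 min at RT with 1 nM–50 μM compound in Na-free pH 7.4 buffer. IC50 was fit to the post/pre-trigger fluorescence ratio.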
Take `CCOC(=O)c1c(C)nn(-c2cc(Nc3nn(C)c(-c4ccc(C#N)cc4)c3C)ncn2)c1C` [Example 299, ethyl 1-(6-{[5-(4-cyanophenyl)-1,4-dimethyl-1H-pyrazol-3-yl]amino}pyrimidin-4-yl)-3,5-dimethyl-1H-pyrazole-4-carboxylate]: the midpoint of inhibition, the IC50, lay at 5 nM.

Consider `Cc1nn(-c2cc(Nc3nn(C)c(-c4ccc(C#N)cc4)c3C)ncn2)c(C)c1C(C)(C)O` [Example 300, 4-[3-({6-[4-(2-hydroxypropan-2-yl)-3,5-dimethyl-1H-pyrazol-1-yl]pyrimidin-4-yl}amino)-1,4-dimethyl-1H-pyrazol-5-yl]benzonitrile], for which it took 88 nM to reach half-maximal inhibition (IC50).

On to `Cc1nn(-c2cc(Nc3c(C)nn(-c4ccc(C#N)cc4)c3C)ncn2)c(C)c1CC(C)(C)O` [Example 301, 4-[4-({6-[4-(2-hydroxy-2-methylpropyl)-3,5-dimethyl-1H-pyrazol-1-yl]pyrimidin-4-yl}amino)-3,5-dimethyl-1H-pyrazol-1-yl]benzonitrile], for which the IC50 is 92 nM.

Consider `Cc1nn(-c2cc(Nc3c(C)c(-c4ccc(F)cc4)nn3CC3CC3)ncn2)c(C)c1CC(C)(C)O` [Example 302, 1-[1-(6-{[1-(cyclopropylmethyl)-3-(4-fluorophenyl)-4-methyl-1H-pyrazol-5-yl]amino}pyrimidin-4-yl)-3,5-dimethyl-1H-pyrazol-4-yl]-2-methylpropan-2-ol], for which inhibition was half-maximal at 9 nM (IC50). Then `CCOC(=O)c1c(Cl)c(C)nn1-c1cc(Nc2nn(C)c(-c3ccc(F)cc3)c2Cl)ncn1` [Example 303, ethyl 4-chloro-1-(6-{[4-chloro-5-(4-fluorophenyl)-1-methyl-1H-pyrazol-3-yl]amino}pyrimidin-4-yl)-3-methyl-1H-pyrazole-5-carboxylate], with 47 nM; and `Cc1nn(-c2cc(Nc3nn(C)c(-c4ccc(F)cc4)c3Cl)ncn2)c(C(C)(C)O)c1Cl` [Example 304, 2-[4-chloro-1-(6-{[4-chloro-5-(4-fluorophenyl)-1-methyl-1H-pyrazol-3-yl]amino}pyrimidin-4-yl)-3-methyl-1H-pyrazol-5-yl]propan-2-ol], with 6 nM; and `Cc1cc(C)n(-c2cc(Nc3c(C)c(-c4ccc(C(F)F)cc4)nn3CC3CC3)ncn2)n1` [Example 305, N-{1-(cyclopropylmethyl)-3-[4-(difluoromethyl)phenyl]-4-methyl-1H-pyrazol-5-yl}-6-(3,5-dimethyl-1H-pyrazol-1-yl)pyrimidin-4-amine], with 27 nM. Then `Cc1cc(C)n(-c2cc(Nc3c(C)c(-c4ccc(C(F)(F)F)cc4)nn3CC3CC3)ncn2)n1` [Example 306, N-{1-(cyclopropylmethyl)-4-methyl-3-[4-(trifluoromethyl)phenyl]-1H-pyrazol-5-yl}-6-(3,5-dimethyl-1H-pyrazol-1-yl)pyrimidin-4-amine], with 60 nM; and `Cc1cc(C(F)F)n(-c2cc(Nc3c(C)c(-c4ccc(C(F)(F)F)cc4)nn3CC3CC3)ncn2)n1` [Example 307, N-{1-(cyclopropylmethyl)-4-methyl-3-[4-(trifluoromethyl)phenyl]-1H-pyrazol-5-yl}-6-[5-(difluoromethyl)-3-methyl-1H-pyrazol-1-yl]pyrimidin-4-amine], with 560 nM. Compound `Cc1cc(C)n(-c2cc(Nc3c(C)c(-c4ccc(OC(F)(F)F)cc4)nn3CC3CC3)ncn2)n1` [Example 308, N-{1-(cyclopropylmethyl)-4-methyl-3-[4-(trifluoromethoxy)phenyl]-1H-pyrazol-5-yl}-6-(3,5-dimethyl-1H-pyrazol-1-yl)pyrimidin-4-amine] registered an IC50 of 23 nM.

Take `Cc1cc(C(F)F)n(-c2cc(Nc3c(C)c(-c4ccc(OC(F)(F)F)cc4)nn3CC3CC3)ncn2)n1` [Example 309, N-{1-(cyclopropylmethyl)-4-methyl-3-[4-(trifluoromethoxy)phenyl]-1H-pyrazol-5-yl}-6-[5-(difluoromethyl)-3-methyl-1H-pyrazol-1-yl]pyrimidin-4-amine]: inhibition was half-maximal at 44 nM (IC50). `Cc1nn(-c2cc(Nc3c(C)c(-c4ccc(OC(F)(F)F)cc4)nn3CC3CC3)ncn2)c(C)c1Cl` [Example 310, 6-(4-chloro-3,5-dimethyl-1H-pyrazol-1-yl)-N-{1-(cyclopropylmethyl)-4-methyl-3-[4-(trifluoromethoxy)phenyl]-1H-pyrazol-5-yl}pyrimidin-4-amine] registered an IC50 of 21 nM. Then `Cc1nn(-c2cc(Nc3c(C)c(-c4ccc(C(F)(F)F)cc4)nn3CC3CC3)ncn2)c(C)c1Cl` [Example 311, 6-(4-chloro-3,5-dimethyl-1H-pyrazol-1-yl)-N-{1-(cyclopropylmethyl)-4-methyl-3-[4-(trifluoromethyl)phenyl]-1H-pyrazol-5-yl}pyrimidin-4-amine], with 340 nM; and `Cc1cc(C)n(-c2cc(Nc3c(C)c(-c4ccc(Cl)cc4)nn3CC3CC3)ncn2)n1` [Example 312, N-[3-(4-chlorophenyl)-1-(cyclopropylmethyl)-4-methyl-1H-pyrazol-5-yl]-6-(3,5-dimethyl-1H-pyrazol-1-yl)pyrimidin-4-amine], with 10 nM. On to `Cc1cc(C(F)F)n(-c2cc(Nc3c(C)c(-c4ccc(Cl)cc4)nn3CC3CC3)ncn2)n1` [Example 313, N-[3-(4-chlorophenyl)-1-(cyclopropylmethyl)-4-methyl-1H-pyrazol-5-yl]-6-[5-(difluoromethyl)-3-methyl-1H-pyrazol-1-yl]pyrimidin-4-amine], for which the midpoint of inhibition, the IC50, lay at 36 nM. Then `CCOC(=O)c1c(C)nn(-c2cc(Nc3c(C)c(-c4ccc(Cl)cc4)nn3CC3CC3)ncn2)c1C` [Example 314, ethyl 1-(6-{[3-(4-chlorophenyl)-1-(cyclopropylmethyl)-4-methyl-1H-pyrazol-5-yl]amino}pyrimidin-4-yl)-3,5-dimethyl-1H-pyrazole-4-carboxylate], with 9 nM; and `COc1c(-c2ccc(F)cc2)nn(CC2CC2)c1Nc1cc(-n2nc(C)cc2C)ncn1` [Example 315, N-[1-(cyclopropylmethyl)-3-(4-fluorophenyl)-4-methoxy-1H-pyrazol-5-yl]-6-(3,5-dimethyl-1H-pyrazol-1-yl)pyrimidin-4-amine], with 99 nM. With `COc1c(-c2ccc(C#N)cc2)nn(CC2CC2)c1Nc1cc(-n2nc(C)cc2C)ncn1` [Example 316, 4-[1-(cyclopropylmethyl)-5-{[6-(3,5-dimethyl-1H-pyrazol-1-yl)pyrimidin-4-yl]amino}-4-methoxy-1H-pyrazol-3-yl]benzonitrile], the IC50 amounted to 81 nM.

On to `COc1c(-c2ccc(F)cc2)nn(CC2CC2)c1Nc1cc(-n2nc(C)c(C(C)=O)c2C)ncn1` [Example 317, 1-[1-(6-{[1-(cyclopropylmethyl)-3-(4-fluorophenyl)-4-methoxy-1H-pyrazol-5-yl]amino}pyrimidin-4-yl)-3,5-dimethyl-1H-pyrazol-4-yl]ethanone], for which the 50% inhibitory concentration (IC50) came to 450 nM. Then `COc1c(-c2ccc(C#N)cc2)nn(CC2CC2)c1Nc1cc(-n2nc(C)c(C(C)=O)c2C)ncn1` [Example 318, 4-[5-{[6-(4-acetyl-3,5-dimethyl-1H-pyrazol-1-yl)pyrimidin-4-yl]amino}-1-(cyclopropylmethyl)-4-methoxy-1H-pyrazol-3-yl]benzonitrile], with 790 nM; and `CCOC(=O)c1c(C)nn(-c2cc(Nc3c(OC)c(-c4ccc(F)cc4)nn3CC3CC3)ncn2)c1C` [Example 319, ethyl 1-(6-{[1-(cyclopropylmethyl)-3-(4-fluorophenyl)-4-methoxy-1H-pyrazol-5-yl]amino}pyrimidin-4-yl)-3,5-dimethyl-1H-pyrazole-4-carboxylate], with 82 nM; and `CCOC(=O)c1c(C)nn(-c2cc(Nc3c(OC)c(-c4ccc(C#N)cc4)nn3CC3CC3)ncn2)c1C` [Example 320, ethyl 1-(6-{[3-(4-cyanophenyl)-1-(cyclopropylmethyl)-4-methoxy-1H-pyrazol-5-yl]amino}pyrimidin-4-yl)-3,5-dimethyl-1H-pyrazole-4-carboxylate], with 71 nM. On to `CC(=O)c1c(C)nn(-c2cc(Nc3c(C)c(-c4ccc(C#N)cc4)nn3CC3CC3)ncn2)c1C` [Example 321, 4-[5-{[6-(4-acetyl-3,5-dimethyl-1H-pyrazol-1-yl)pyrimidin-4-yl]amino}-1-(cyclopropylmethyl)-4-methyl-1H-pyrazol-3-yl]benzonitrile], for which the IC50 was 16 nM.

`Cc1cc(C)n(-c2cc(Nc3c(C)c(-c4ccc(C5CN(C(=O)OC(C)(C)C)C5)cc4)nn3C)ncn2)n1` [Example 323, tert-butyl 3-[4-(5-{[6-(3,5-dimethyl-1H-pyrazol-1-yl)pyrimidin-4-yl]amino}-1,4-dimethyl-1H-pyrazol-3-yl)phenyl]azetidine-1-carboxylate] displayed an IC50 of 660 nM. Then `Cc1cc(C)n(-c2cc(Nc3c(C)c(-c4ccc(C5CC5)cc4)nn3C)ncn2)n1` [Example 324, N-[3-(4-cyclopropylphenyl)-1,4-dimethyl-1H-pyrazol-5-yl]-6-(3,5-dimethyl-1H-pyrazol-1-yl)pyrimidin-4-amine], with 270 nM; and `CC(=O)c1c(C)nn(-c2cc(Nc3c(C)c(-c4ccc(C#N)cc4)nn3C)ncn2)c1C` [Example 337, 4-(5-{[6-(4-acetyl-3,5-dimethyl-1H-pyrazol-1-yl)pyrimidin-4-yl]amino}-1,4-dimethyl-1H-pyrazol-3-yl)benzonitrile], with 66 nM.
